The nature of test [1]: Sensory evaluation of off-taste suppressing effect in 0.8 wt % potassium chloride aqueous solution (Experimental Examples 1 and 2). The conditions noted are these: for off-taste suppressing effect: 0.8 wt % potassium chloride aqueous solution; for intensity of off-tastes (bitter taste, metallic taste, harsh taste, astringent taste) derived from potassium chloride: potassium chloride aqueous solutions, Tables 1 to 14. On the procedure:
Each compound shown in the following Tables 1 to 13 was added to a 0.8 wt % potassium chloride aqueous solution at the concentration (addition concentration) shown in the following Tables 1 to 13 to prepare each evaluation sample.
Based on the following evaluation criteria, a panel of two experts determined by consensus the intensity of off-tastes (bitter taste, metallic taste, harsh taste, astringent taste) derived from potassium chloride in each evaluation sample, by reference to each potassium chloride aqueous solution adjusted to 0.8 wt %, 0.75 wt %, 0.7 wt %, or 0.65 wt %.
−: intensity of the same level as potassium chloride aqueous solution with potassium chloride concentration of not less than 0.8 wt %
+: intensity of the same level as potassium chloride aqueous solution with potassium chloride concentration of not less than 0.75 wt % and less than 0.8 wt %
++: intensity of the same level as potassium chloride aqueous solution with potassium chloride concentration of not less than 0.7 wt % and less than 0.75 wt %
+++: intensity of the same level as potassium chloride aqueous solution with potassium chloride concentration of not less than 0.65 wt % and less than 0.7 wt %
Each compound shown in the following Table 14 was added to a 0.8 wt % potassium chloride aqueous solution at the concentration (addition concentration) shown in the following Table 14 to prepare each evaluation sample.

A short description of test [2]: Sensory evaluation in ramen noodle soup solution with potassium chloride (Experimental Example 3). To be noted: for off-taste suppressing effect: Ramen noodle soup solution with 0.8 wt % potassium chloride; for intensity of off-tastes (bitter taste, metallic taste, harsh taste, astringent taste) derived from potassium chloride: base solutions of Tables 15 to 17 (ramen noodle soup, chicken broth, potage). On the procedure:
(§1) As shown in the following (1) to (3) below, 0.8 wt % of potassium chloride was added to a food base powder corresponding to 0.5 wt % of sodium chloride to prepare each base solution having an off-taste derived from potassium chloride.
Potassium chloride (0.8 g) was added to a soup powder (1.1 g) of a commercially available instant ramen noodle (manufactured by SANYO FOODS Co., Ltd., trade name “Sapporo Ichiban Shouyuaji”), hot water (98.1 g) was added to dissolve the mixture to prepare a base solution (ramen noodle soup solution).
(§2) Each compound shown in the following Tables 15 to 17 was added to each base solution (ramen noodle soup solution, chicken broth solution, potage solution) so as to achieve the concentration (addition concentration) shown in the following Tables 15 to 17 to prepare each evaluation sample.
(§3) By a method similar to that in Experimental Example 1, a panel of two experts determined the intensity of off-tastes (bitter taste, metallic taste, harsh taste, astringent taste) derived from potassium chloride in each evaluation sample.

Test [3] can be described thus: Sensory evaluation in chicken broth solution with potassium chloride (Experimental Example 3). The conditions noted are these: chicken broth solution with 0.8 wt % potassium chloride. On the procedure:
as §1
Potassium chloride (0.8 g) was added to a commercially available powdered chicken broth mix (manufactured by Ajinomoto Co., Inc., trade name “Marutorigara Soup”) (1.0 g), hot water (98.2 g) was added to dissolve the mixture to prepare a base solution (chicken broth soup solution).
as §2, §3

The nature of test [4]: Sensory evaluation in potage solution with potassium chloride (Experimental Example 3). The conditions noted are these: Potage solution with 0.8 wt % potassium chloride. On the procedure: as §1
Potassium chloride (0.8 g) was added to a commercially available powdered instant potage (manufactured by Ajinomoto Co., Inc., trade name “Knorr (registered trade mark) Cup Soup Potage”) (7.1 g), hot water (92.1 g) was added to dissolve the mixture to prepare a base solution (potage solution).
as §2, §3

Where [5] appears, read: addition concentration 1 weight ppb (0.125 weight ppm with respect to potassium chloride).
Setting [6] is: addition concentration 5 weight ppb (0.625 weight ppm with respect to potassium chloride).
The mark [7] stands for this setting: addition concentration 10 weight ppb (1.25 weight ppm with respect to potassium chloride).
Setting [8] is: addition concentration 50 weight ppb (6.25 weight ppm with respect to potassium chloride).
Where [9] appears, read: addition concentration 100 weight ppb (12.5 weight ppm with respect to potassium chloride).
The mark [10] stands for this setting: addition concentration 500 weight ppb (62.5 weight ppm with respect to potassium chloride).
[11] abbreviates: addition concentration 100 ppb (12.5 weight ppm with respect to potassium chloride).
Setting [12] is: addition concentration 10 ppb (1.25 weight ppm with respect to potassium chloride).

The record followed here is patent publication US20220279826A1, “OFF-FLAVOR SUPPRESSING AGENT” (AJINOMOTO CO., INC., priority 2019, published 2022).

As to `CC1=C(O)C(=O)CO1` [4-hydroxy-5-methyl-3(2H)-furanone], the off-taste suppressing effect result is “+ (intensity of the same level as potassium chloride aqueous solution with potassium chloride concentration of not less than 0.75 wt % and less than 0.8 wt %)” in test [1] (setting [5]); “+ (intensity of the same level as potassium chloride aqueous solution with potassium chloride concentration of not less than 0.75 wt % and less than 0.8 wt %)” in test [1] (setting [6]); “+ (intensity of the same level as potassium chloride aqueous solution with potassium chloride concentration of not less than 0.75 wt % and less than 0.8 wt %)” in test [1] (setting [7]); “++ (intensity of the same level as potassium chloride aqueous solution with potassium chloride concentration of not less than 0.7 wt % and less than 0.75 wt %)” in test [1] (setting [8]); “++ (intensity of the same level as potassium chloride aqueous solution with potassium chloride concentration of not less than 0.7 wt % and less than 0.75 wt %)” in test [1] (setting [9]); “+ (intensity of the same level as potassium chloride aqueous solution with potassium chloride concentration of not less than 0.75 wt % and less than 0.8 wt %)” in test [1] (setting [10]). The off-taste suppressing effect result in test [2] (setting [11]) is “++ (intensity of the same level as potassium chloride aqueous solution with potassium chloride concentration of not less than 0.7 wt % and less than 0.75 wt %)”; in test [3] (setting [11]), “++ (intensity of the same level as potassium chloride aqueous solution with potassium chloride concentration of not less than 0.7 wt % and less than 0.75 wt %)”; in test [4] (setting [11]) it was “++ (intensity of the same level as potassium chloride aqueous solution with potassium chloride concentration of not less than 0.7 wt % and less than 0.75 wt %)”. Further, the “intensity of off-tastes (bitter taste, metallic taste, harsh taste, astringent taste) derived from potassium chloride” value (from here on “intensity of off-tastes”) in test [1] and in test [2] was “decreased” each time.

In the case of `CC1=C(O)C(=O)C(C)O1` (stereo not drawn) [4-hydroxy-2,5-dimethyl-3(2H)-furanone], the off-taste suppressing effect result in test [1] (setting [5]) is “+ (intensity of the same level as potassium chloride aqueous solution with potassium chloride concentration of not less than 0.75 wt % and less than 0.8 wt %)”; in test [1] (setting [6]), “+ (intensity of the same level as potassium chloride aqueous solution with potassium chloride concentration of not less than 0.75 wt % and less than 0.8 wt %)”; in test [1] (setting [7]), “++ (intensity of the same level as potassium chloride aqueous solution with potassium chloride concentration of not less than 0.7 wt % and less than 0.75 wt %)”; in test [1] (setting [8]), “++ (intensity of the same level as potassium chloride aqueous solution with potassium chloride concentration of not less than 0.7 wt % and less than 0.75 wt %)”; in test [1] (setting [9]) it was “++ (intensity of the same level as potassium chloride aqueous solution with potassium chloride concentration of not less than 0.7 wt % and less than 0.75 wt %)”; in test [2] (setting [12]) it was “++ (intensity of the same level as potassium chloride aqueous solution with potassium chloride concentration of not less than 0.7 wt % and less than 0.75 wt %)”. Moreover, the off-taste suppressing effect entry in test [3] (setting [12]) is “++ (intensity of the same level as potassium chloride aqueous solution with potassium chloride concentration of not less than 0.7 wt % and less than 0.75 wt %)”; in test [4] (setting [12]) it was “++ (intensity of the same level as potassium chloride aqueous solution with potassium chloride concentration of not less than 0.7 wt % and less than 0.75 wt %)”. For the same molecule, the “intensity of off-tastes” value in test [1] and in test [2] was “decreased” each time.

Take `CC1=C(O)C(=O)OC1C` (stereo not drawn) [4,5-dimethyl-3-hydroxy-2(5H)-furanone]: the off-taste suppressing effect result in test [1] (setting [5]) was “+ (intensity of the same level as potassium chloride aqueous solution with potassium chloride concentration of not less than 0.75 wt % and less than 0.8 wt %)”; in test [1] (setting [6]), “++ (intensity of the same level as potassium chloride aqueous solution with potassium chloride concentration of not less than 0.7 wt % and less than 0.75 wt %)”; in test [1] (setting [7]), “++ (intensity of the same level as potassium chloride aqueous solution with potassium chloride concentration of not less than 0.7 wt % and less than 0.75 wt %)”; in test [1] (setting [8]), “+ (intensity of the same level as potassium chloride aqueous solution with potassium chloride concentration of not less than 0.75 wt % and less than 0.8 wt %)”; in test [1] (setting [9]), “+ (intensity of the same level as potassium chloride aqueous solution with potassium chloride concentration of not less than 0.75 wt % and less than 0.8 wt %)”; in test [1] (setting [10]) it was “+ (intensity of the same level as potassium chloride aqueous solution with potassium chloride concentration of not less than 0.75 wt % and less than 0.8 wt %)”. Also, the off-taste suppressing effect result was “+ (intensity of the same level as potassium chloride aqueous solution with potassium chloride concentration of not less than 0.75 wt % and less than 0.8 wt %)” in test [1] (addition concentration 1000 weight ppb (125 weight ppm with respect to potassium chloride)); “++ (intensity of the same level as potassium chloride aqueous solution with potassium chloride concentration of not less than 0.7 wt % and less than 0.75 wt %)” in test [2] (setting [12]); “++ (intensity of the same level as potassium chloride aqueous solution with potassium chloride concentration of not less than 0.7 wt % and less than 0.75 wt %)” in test [3] (setting [12]); “++ (intensity of the same level as potassium chloride aqueous solution with potassium chloride concentration of not less than 0.7 wt % and less than 0.75 wt %)” in test [4] (setting [12]). In addition, the “intensity of off-tastes” value in test [1] and in test [2] was “decreased” throughout.
